One data set has as its system wheat powdery mildew. The experiment in a line: fungicidal activity in vivo, wheat powdery mildew on wheat seedling leaves. Conditions: spray, investigated after 7 days. Here is the method:
(§1) The procedure of determination of fungicidal activity in vivo is as follow:
The compounds of the present invention were diluted to given concentrations and sprayed on the leaves of wheat seedling at the same two-leaf stage, meanwhile, water were set as the blank control, three replicates were set for each treatment. Wheat powdery mildew spore suspension were inoculated on the second day after treatment, and then placed in greenhouse (25±2° C.) and routine management was conducted. The test results were investigated after 7 days, disease grading refers to the national standard of the People's Republic of China [The test criteria of pesticide field trial], the control effect was calculated by disease index.

For the next data set, the system named is cucumber downy mildew. The experiment in a line: fungicidal activity in vivo, cucumber downy mildew on cucumber seedling leaves. Conditions: spray, investigated after 5 days. Here is the method:
as §1
The compounds of the present invention were diluted to given concentrations and sprayed on the leaves of cucumber seedling at the same stage, on which growing point were cut off and two euphyllas were kept meanwhile, water were set as the blank control, three replicates were set for each treatment. Cucumber downy mildew spore suspension were inoculated on the second day after treatment, then, the plants were placed in a chamber (temperature: day 25° C., and night 20° C., relative humidity 95 to 100%), and then placed in greenhouse (25±2° C.) 24 hours later and routine management was conducted. The test results were investigated after 5 days, disease grading refers to the national standard of the People's Republic of China [The test criteria of pesticide field trial], the control effect was calculated by disease index.

The subject of the next data set is wheat rust. To be noted: in vivo.
The test system of the next data set is rice blast. The experiment in a line: microbe, parasite or virus in culture. It counts as cell-based. To be noted: for rice blast inhibition rate %: in vitro spore germination; for inhibition at 25 µg/mL / inhibition at 2.8 µg/mL / inhibition at 8.3 µg/mL: Pyricularia oryzae, read-out: rice blast inhibition rate %.
The mark [1] stands for this setting: 400 mg/L, spray, investigated after 7 days.
Setting [2] is: 100 mg/L, spray, investigated after 7 days.

The values that follow come from patent US9018218B2 (priority 2010, dated 2015).

Like-named read-outs stand apart in the source and are kept apart here.

For `CCCCc1c(C)nc(Nc2ccccc2)nc1OC(=O)OC` [Compound 1], the “wheat powdery mildew control %” value in the data set on wheat powdery mildew (50 mg/L) was 98%; in the data set with wheat powdery mildew (100 mg/L), 100%; in the data set with wheat powdery mildew (400 mg/L), 100%. The results for the “cucumber downy mildew control %” value with cucumber downy mildew (50 mg/L), in the data set with cucumber downy mildew (100 mg/L) and in the data set with cucumber downy mildew (400 mg/L) were 0%, 20% and 95%, respectively.
Take `CCCCc1c(C)nc(Nc2ccc(OC(F)(F)F)cc2)nc1OC(=O)OC` [Compound 13]: the “wheat powdery mildew control %” value in the data set with wheat powdery mildew (400 mg/L) is given as 95%. The “wheat rust control %” value with wheat rust (setting [1]) was 0%. Moreover, in the data set on cucumber downy mildew (400 mg/L), the “cucumber downy mildew control %” value was 30%.
On to `CCCCc1c(C)nc(Nc2ccccc2)nc1OC(=O)OC(C)C` [Compound 46], for which the figures for the “rice blast inhibition rate %” value in the data set on rice blast (2.8 mg/L), in the data set with rice blast (8.3 mg/L) and in the data set with rice blast (25 mg/L) were 80%, 100% and 100%, respectively. Besides, the “wheat powdery mildew control %” value in the data set on wheat powdery mildew (50 mg/L) is 98%; in the data set on wheat powdery mildew (100 mg/L), 100%; in the data set on wheat powdery mildew (400 mg/L) it was 100%. In addition, the “wheat rust control %” value in the data set with wheat rust (setting [2]) is 0%; in the data set on wheat rust (setting [1]), 100%. The “cucumber downy mildew control %” value in the data set with cucumber downy mildew (100 mg/L) worked out at 10%; with cucumber downy mildew (400 mg/L), 95%.
As to `CCCCc1c(C)nc(Nc2ccc(OC(F)(F)F)cc2)nc1OC(=O)OC(C)C` [Compound 53], the “rice blast inhibition rate %” value in the data set on rice blast (25 mg/L) is on record as 50%. Besides, in the data set with wheat powdery mildew (400 mg/L), the “wheat powdery mildew control %” value was 50%. Besides, the “wheat rust control %” value with wheat rust (setting [1]) was found to be 0%. Besides, in the data set with cucumber downy mildew (400 mg/L), the “cucumber downy mildew control %” value stood at 95%.
For `CCCCc1c(C)nc(Nc2ccccc2)nc1OC(=O)OCC` [Compound 75], the “rice blast inhibition rate %” value in the data set on rice blast (25 mg/L) is on record as 50%. Moreover, the “wheat powdery mildew control %” value is given as 50% in the data set with wheat powdery mildew (50 mg/L), 98% in the data set on wheat powdery mildew (100 mg/L) and 95% with wheat powdery mildew (400 mg/L). Besides, the “wheat rust control %” value in the data set with wheat rust (50 mg/L, spray, investigated after 7 days) is 30%; in the data set on wheat rust (setting [2]), 60%; in the data set with wheat rust (setting [1]) it was 98%. Also, the “cucumber downy mildew control %” value with cucumber downy mildew (100 mg/L) is given as 30%; in the data set with cucumber downy mildew (400 mg/L), 95%.
As for `CCCCOC(=O)Oc1nc(Nc2ccccc2)nc(C)c1CCCC` [Compound 101], the “rice blast inhibition rate %” value with rice blast (25 mg/L) came to 50%. Also, the figures for the “wheat powdery mildew control %” value in the data set with wheat powdery mildew (50 mg/L), with wheat powdery mildew (100 mg/L) and in the data set with wheat powdery mildew (400 mg/L) were 70%, 95% and 100%, respectively. Further, the “wheat rust control %” value is recorded as 0% in the data set on wheat rust (setting [2]) and 98% in the data set with wheat rust (setting [1]). In addition, the “cucumber downy mildew control %” value with cucumber downy mildew (400 mg/L) was found to be 70%.
One may read the inhibition as the relative decrease from the control value, in per cent. Regarding `CCCCc1c(C)nc(Nc2ccccc2)nc1OC(=O)OCc1ccccc1` [Compound 156], the inhibition at 25 µg/mL in the data set with rice blast worked out at 80%. In addition, the “wheat powdery mildew control %” value is reported as 80% in the data set on wheat powdery mildew (100 mg/L) and 100% in the data set on wheat powdery mildew (400 mg/L). Also, the “wheat rust control %” value with wheat rust is 0%. Further, in the data set on cucumber downy mildew (400 mg/L), the “cucumber downy mildew control %” value was found to be 30%.
Take `CCCCc1c(C)nc(Nc2ccccc2)nc1OC(=O)OC(C)c1ccccc1` (stereo not drawn) [Compound 173]: the “rice blast inhibition rate %” value in the data set with rice blast (25 mg/L) is reported as 50%. The figures for the “wheat powdery mildew control %” value in the data set on wheat powdery mildew (100 mg/L) and in the data set on wheat powdery mildew (400 mg/L) were 80% and 100%, respectively. Besides, in the data set on wheat rust (setting [1]), the “wheat rust control %” value turned out to be 0%. In the data set with cucumber downy mildew (400 mg/L), the “cucumber downy mildew control %” value stood at 50%.
For the compound `Cc1nc(Nc2ccccc2)nc(OC(=O)OC(C)C)c1C` [Compound 253], the “rice blast inhibition rate %” value in the data set with rice blast (2.8 mg/L) was 50%; in the data set on rice blast (8.3 mg/L), 80%; in the data set on rice blast (25 mg/L), 100%. Besides, the “wheat powdery mildew control %” value with wheat powdery mildew (400 mg/L) was found to be 0%. Further, the “wheat rust control %” value in the data set with wheat rust (setting [1]) is 95%. Besides, the “cucumber downy mildew control %” value in the data set with cucumber downy mildew (400 mg/L) came out at 20%.
On to `Cc1cc(OC(=O)OC(C)C)nc(Nc2ccccc2)n1` [Compound 270], for which the “rice blast inhibition rate %” value is recorded as 0% with rice blast (8.3 mg/L) and 100% in the data set with rice blast (25 mg/L). For the same compound, the “wheat powdery mildew control %” value in the data set with wheat powdery mildew (400 mg/L) is reported as 0%. Further, the “wheat rust control %” value in the data set on wheat rust (setting [1]) stood at 60%. In the data set on cucumber downy mildew (400 mg/L), the “cucumber downy mildew control %” value was 0%.
The melting point is the temperature, or range, at which the solid turns liquid. The compound `CC(C)OC(=O)Oc1nc(Nc2ccccc2)nc2c1CCC2` [Compound 393] displayed a melting point of 124 to 126 °C. Moreover, in the data set on rice blast, the inhibition at 2.8 µg/mL stood at 0%, the inhibition at 8.3 µg/mL was 80% and the inhibition at 25 µg/mL was 100%. For the same compound, the “wheat powdery mildew control %” value in the data set on wheat powdery mildew (400 mg/L) worked out at 0%. In addition, the “wheat rust control %” value in the data set with wheat rust is recorded as 70%. Besides, in the data set on cucumber downy mildew (400 mg/L), the “cucumber downy mildew control %” value stood at 0%.
Regarding `CC(C)OC(=O)Oc1nc(Nc2ccccc2)nc2c1CCCC2` [Compound 427], the “rice blast inhibition rate %” value with rice blast (8.3 mg/L) turned out to be 80%; with rice blast (25 mg/L), 100%. In addition, in the data set on wheat powdery mildew (400 mg/L), the “wheat powdery mildew control %” value came out at 0%. Moreover, the “wheat rust control %” value in the data set on wheat rust (setting [1]) is 98%. The “cucumber downy mildew control %” value in the data set with cucumber downy mildew (400 mg/L) is reported as 0%.
`CC(C)OC(=O)Oc1nc(Nc2ccc(F)c(F)c2F)nc2c1CCCC2` [Compound 443] returned a melting point of 124 to 126 °C. Moreover, in the data set on rice blast, the inhibition at 2.8 µg/mL worked out at 50%, the inhibition at 8.3 µg/mL turned out to be 100% and the inhibition at 25 µg/mL was 100%. In the data set with wheat powdery mildew (400 mg/L), the “wheat powdery mildew control %” value is given as 0%. Moreover, the “wheat rust control %” value in the data set on wheat rust worked out at 0%. Further, in the data set with cucumber downy mildew (400 mg/L), the “cucumber downy mildew control %” value was determined as 90%.
Take `CCCCc1c(C)nc(N(C)C)nc1OC(=O)OCC` [Compound K1, reference compound]: in the data set with rice blast, the inhibition at 2.8 µg/mL came to 0%, the inhibition at 8.3 µg/mL was determined as 80% and the inhibition at 25 µg/mL amounted to 100%. Moreover, the “wheat powdery mildew control %” value with wheat powdery mildew (100 mg/L) is 0%. Moreover, the “wheat powdery mildew control %” value in the data set with wheat powdery mildew (400 mg/L) is listed as 100%. Besides, the “wheat rust control %” value in the data set on wheat rust is given as 0%. Moreover, the “cucumber downy mildew control %” value with cucumber downy mildew (400 mg/L) stood at 0%.
In the case of `COC(=O)Oc1cc(C2CC2)nc(Nc2ccccc2)n1` [Compound K2, reference compound], the inhibition at 25 µg/mL in the data set with rice blast worked out at 80%. The “wheat powdery mildew control %” value with wheat powdery mildew (400 mg/L) was found to be 0%. For the same compound, the “wheat rust control %” value with wheat rust is 0%. The “cucumber downy mildew control %” value in the data set with cucumber downy mildew (400 mg/L) came to 0%.
